Assay results: patent US10081624B2, “Heterocyclic compound” (Takeda Pharmaceutical Company Limited, priority 2014, dated 2018)

Target: T1, HDAC6 enzyme (Homo sapiens, UniProt Q9UBN7)
T1 construct: prepared by transducing full length HDAC1 and HDAC6 genes into Sf-9 insect cells; GST; purchased SignalChem; host or cells: Sf-9 insect cells
T1 sequence (Q9UBN7 1-1215): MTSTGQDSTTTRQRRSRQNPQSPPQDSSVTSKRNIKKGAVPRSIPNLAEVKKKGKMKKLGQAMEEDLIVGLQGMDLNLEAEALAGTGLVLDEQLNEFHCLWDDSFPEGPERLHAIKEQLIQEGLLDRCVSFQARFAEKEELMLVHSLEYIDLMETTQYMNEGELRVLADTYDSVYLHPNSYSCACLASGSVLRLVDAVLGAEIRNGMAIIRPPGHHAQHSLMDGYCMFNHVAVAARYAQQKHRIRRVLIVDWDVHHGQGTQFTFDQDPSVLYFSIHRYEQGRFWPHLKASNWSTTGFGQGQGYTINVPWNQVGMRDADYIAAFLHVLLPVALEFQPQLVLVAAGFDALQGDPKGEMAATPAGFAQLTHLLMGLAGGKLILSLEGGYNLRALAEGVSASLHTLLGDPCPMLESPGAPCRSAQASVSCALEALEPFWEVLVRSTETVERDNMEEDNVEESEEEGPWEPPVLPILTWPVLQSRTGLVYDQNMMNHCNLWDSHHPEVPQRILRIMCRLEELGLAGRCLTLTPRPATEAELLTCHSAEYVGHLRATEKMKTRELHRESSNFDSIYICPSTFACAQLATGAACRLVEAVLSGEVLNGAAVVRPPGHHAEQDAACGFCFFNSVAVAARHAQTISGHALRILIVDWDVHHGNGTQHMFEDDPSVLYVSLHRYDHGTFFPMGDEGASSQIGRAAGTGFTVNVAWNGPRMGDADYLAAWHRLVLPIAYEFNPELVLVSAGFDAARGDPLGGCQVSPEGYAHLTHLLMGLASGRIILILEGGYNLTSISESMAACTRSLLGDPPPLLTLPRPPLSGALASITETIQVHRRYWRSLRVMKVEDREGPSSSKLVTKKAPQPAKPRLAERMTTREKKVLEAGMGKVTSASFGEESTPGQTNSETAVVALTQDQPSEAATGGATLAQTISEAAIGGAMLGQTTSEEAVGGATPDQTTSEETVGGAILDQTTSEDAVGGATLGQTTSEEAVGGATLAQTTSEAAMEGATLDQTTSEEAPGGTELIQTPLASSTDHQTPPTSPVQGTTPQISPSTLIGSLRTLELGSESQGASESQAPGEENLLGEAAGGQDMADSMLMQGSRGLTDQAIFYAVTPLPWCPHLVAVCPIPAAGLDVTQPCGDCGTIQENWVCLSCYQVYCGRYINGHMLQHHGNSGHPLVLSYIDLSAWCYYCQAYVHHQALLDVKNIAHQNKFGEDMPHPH
Assay: HDAC6 enzyme inhibitory assay (HDAC-Glo I/II Assay kit)
Type: biochemical
Settings: 1 μM test compound; read-out: HDAC6 inhibitory rate (%) (1 μM)
Experimental: HDAC1 enzyme and HDAC6 enzyme each prepared by transducing full length HDAC1 and HDAC6 genes into Sf-9 insect cells and purifying by GST affinity column were purchased from SignalChem. Using these enzymes, HDAC1 and/or HDAC6 enzyme inhibitory activities of the compound of the present invention were evaluated. Enzymes were used after preserved at −70° C. HDAC1 or HDAC6 enzyme inhibitory activity of the compound of the present invention was measured using HDAC-Glo™ I/II Assay kit (Promega) according to the following experimental method. The test compound diluted with assay buffer (24 mM Tris-HCl (pH 7.5), 1 mM MgCl2, 0.35 mM KCl, 135 mM NaCl, 0.6 mM Glutathione, 0.01% Tween-20) was added to a 384-well plate by each 2 μL. Then, HDAC1 or HDAC6 enzyme solution diluted with assay buffer was added thereto by each 4 μL, and the plate was incubated at room temperature for 60 min. After incubated, HDAC substrate-Developer solution prepared according to Promega protocol attached to the assay kit was added to the 384-well plate by each 2 μL, and the enzyme reaction was started. After reacting at room temperature for 20 min, luminescence level was measured using plate reader Envision (PerkinElmer). The inhibitory activity of each compound was calculated as a relative activity value when luminescence level in wells without enzyme is considered as 100% inhibition.

SMILES: Cn1ccc(C(=O)N2CCOC[C@@H]2CNC(=O)c2ccc(-c3noc(C(F)(F)F)n3)cc2)n1 [Example 65, N-(((3S)-4-((1-methyl-1H-pyrazol-3-yl)carbonyl)morpholin-3-yl)methyl)-4-(5-(trifluoromethyl)-1,2,4-oxadiazol-3-yl)benzamide]
- inhibition at 1 µM: 75%

SMILES: Cc1cc(C(=O)N2CCOCC2CNC(=O)c2ccc(-c3noc(C(F)(F)F)n3)s2)on1 (centres unmarked) [Example 240, N-((4-((3-methyl-1,2-oxazol-5-yl)carbonyl)morpholin-3-yl)methyl)-5-(5-(trifluoromethyl)-1,2,4-oxadiazol-3-yl)thiophene-2-carboxamide]
- inhibition at 1 µM: 89%

SMILES: O=C(NC[C@H]1COCCN1C(=O)Cc1cccs1)c1ccc(-c2noc(C(F)(F)F)n2)cn1 [Example 201, N-(((3S)-4-(2-thienylacetyl)morpholin-3-yl)methyl)-5-(5-(trifluoromethyl)-1,2,4-oxadiazol-3-yl)pyridine-2-carboxamide]
- inhibition at 1 µM: 95%

SMILES: Cn1cc(C(=O)N2CCOC[C@@H]2CNC(=O)c2ccc(-c3noc(C(F)(F)F)n3)cc2)cn1 [Example 66, N-(((3S)-4-((1-methyl-1H-pyrazol-4-yl)carbonyl)morpholin-3-yl)methyl)-4-(5-(trifluoromethyl)-1,2,4-oxadiazol-3-yl)benzamide]
- inhibition at 1 µM: 88%

SMILES: Cc1ccc(C(=O)N2CCOCC2CNC(=O)c2ccc(-c3noc(C(F)(F)F)n3)s2)s1 (centres unmarked) [Example 242, N-((4-((5-methyl-2-thienyl)carbonyl)morpholin-3-yl)methyl)-5-(5-(trifluoromethyl)-1,2,4-oxadiazol-3-yl)thiophene-2-carboxamide]
- inhibition at 1 µM: 89%

SMILES: O=C(NCC1c2ccccc2CN1C(=O)c1cc(Cl)cc(Cl)c1)c1ccc(-c2noc(C(F)(F)F)n2)cc1 (centres unmarked) [Example 171, N-((2-(3,5-dichlorobenzoyl)-2,3-dihydro-1H-isoindol-1-yl)methyl)-4-(5-(trifluoromethyl)-1,2,4-oxadiazol-3-yl)benzamide]
- inhibition at 1 µM: 66%

SMILES: O=C(NCC1COCCN1C(=O)c1ccccc1N1CCOCC1)c1ccc(-c2noc(C(F)(F)F)n2)s1 (centres unmarked) [Example 220, N-((4-(2-(morpholin-4-yl)benzoyl)morpholin-3-yl)methyl)-5-(5-(trifluoromethyl)-1,2,4-oxadiazol-3-yl)thiophene-2-carboxamide]
- inhibition at 1 µM: 94%

SMILES: COc1cccc(C(=O)N2CCOCC2CNC(=O)c2ccc(-c3noc(C(F)(F)F)n3)cc2)c1 (stereo in doubt) [Example 114, N-(((3R)-4-(3-methoxybenzoyl)morpholin-3-yl)methyl)-4-(5-(trifluoromethyl)-1,2,4-oxadiazol-3-yl)benzamide]
- inhibition at 1 µM: 92%

SMILES: O=C(NCC1COCCN1C(=O)c1ccc(Cl)cc1)c1ccc(-c2noc(C(F)(F)F)n2)s1 (centres unmarked) [Example 216, N-((4-(4-chlorobenzoyl)morpholin-3-yl)methyl)-5-(5-(trifluoromethyl)-1,2,4-oxadiazol-3-yl)thiophene-2-carboxamide]
- inhibition at 1 µM: 93%

SMILES: N#Cc1ccccc1C(=O)N1CCOC[C@@H]1CNC(=O)c1ccc(-c2noc(C(F)(F)F)n2)cn1 [Example 187, N-(((3S)-4-(2-cyanobenzoyl)morpholin-3-yl)methyl)-5-(5-(trifluoromethyl)-1,2,4-oxadiazol-3-yl)pyridine-2-carboxamide]
- inhibition at 1 µM: 94%

SMILES: O=C(NCC1COCCN1C(=O)c1ccccc1)c1ccc(-c2noc(C(F)(F)F)n2)nc1 (centres unmarked) [Example 180, N-((4-benzoylmorpholin-3-yl)methyl)-6-(5-(trifluoromethyl)-1,2,4-oxadiazol-3-yl)nicotinamide]
- inhibition at 1 µM: 91%

SMILES: O=C(NC[C@H]1COCCN1C(=O)CC1CC1)c1ccc(-c2noc(C(F)(F)F)n2)cc1 [Example 76, N-(((3S)-4-(cyclopropylacetyl)morpholin-3-yl)methyl)-4-(5-(trifluoromethyl)-1,2,4-oxadiazol-3-yl)benzamide]
- inhibition at 1 µM: 90%

SMILES: O=C(NC[C@@H]1COCCN1C(=O)COc1ccccc1)c1ccc(-c2noc(C(F)(F)F)n2)cc1 [Example 130, N-(((3R)-4-(phenoxyacetyl)morpholin-3-yl)methyl)-4-(5-(trifluoromethyl)-1,2,4-oxadiazol-3-yl)benzamide]
- inhibition at 1 µM: 94%

SMILES: Cc1ccc(C(=O)N2CCOC[C@@H]2CNC(=O)c2ccc(-c3noc(C(F)(F)F)n3)cc2)s1 [Example 72, N-(((3S)-4-((5-methyl-2-thienyl)carbonyl)morpholin-3-yl)methyl)-4-(5-(trifluoromethyl)-1,2,4-oxadiazol-3-yl)benzamide]
- inhibition at 1 µM: 89%

SMILES: N#Cc1ccccc1C(=O)N1CCOCC1CNC(=O)c1ccc(-c2noc(C(F)(F)F)n2)cc1 (stereo in doubt) [Example 115, N-(((3R)-4-(2-cyanobenzoyl)morpholin-3-yl)methyl)-4-(5-(trifluoromethyl)-1,2,4-oxadiazol-3-yl)benzamide]
- inhibition at 1 µM: 94%

SMILES: Cc1oncc1C(=O)N1CCOC[C@H]1CNC(=O)c1ccc(-c2noc(C(F)(F)F)n2)cc1 [Example 131, N-(((3R)-4-((5-methyl-1,2-oxazol-4-yl)carbonyl)morpholin-3-yl)methyl)-4-(5-(trifluoromethyl)-1,2,4-oxadiazol-3-yl)benzamide]
- inhibition at 1 µM: 87%

SMILES: N#Cc1cccc(C(=O)N2CCOCC2CNC(=O)c2ccc(-c3noc(C(F)(F)F)n3)s2)c1 (centres unmarked) [Example 218, N-((4-(3-cyanobenzoyl)morpholin-3-yl)methyl)-5-(5-(trifluoromethyl)-1,2,4-oxadiazol-3-yl)thiophene-2-carboxamide]
- inhibition at 1 µM: 91%

SMILES: O=C(NCC1COCCN1C(=O)C1CCOCC1)c1ccc(-c2noc(C(F)(F)F)n2)s1 (centres unmarked) [Example 255, N-((4-(tetrahydro-2H-pyran-4-ylcarbonyl)morpholin-3-yl)methyl)-5-(5-(trifluoromethyl)-1,2,4-oxadiazol-3-yl)thiophene-2-carboxamide]
- inhibition at 1 µM: 93%

SMILES: O=C(NCC1COCCN1C(=O)Cc1cccs1)c1ccc(-c2noc(C(F)(F)F)n2)s1 (centres unmarked) [Example 245, N-((4-(2-thienylacetyl)morpholin-3-yl)methyl)-5-(5-(trifluoromethyl)-1,2,4-oxadiazol-3-yl)thiophene-2-carboxamide]
- inhibition at 1 µM: 95%

SMILES: O=C(NCC1Cc2ccccc2N1C(=O)C1CC1)c1ccc(-c2noc(C(F)(F)F)n2)cc1 (centres unmarked) [Example 166, N-((1-(cyclopropylcarbonyl)-2,3-dihydro-1H-indol-2-yl)methyl)-4-(5-(trifluoromethyl)-1,2,4-oxadiazol-3-yl)benzamide]
- inhibition at 1 µM: 98%

SMILES: Cn1ccnc1C(=O)N1CCOCC1CNC(=O)c1ccc(-c2noc(C(F)(F)F)n2)s1 (centres unmarked) [Example 228, N-((4-((1-methyl-1H-imidazol-2-yl)carbonyl)morpholin-3-yl)methyl)-5-(5-(trifluoromethyl)-1,2,4-oxadiazol-3-yl)thiophene-2-carboxamide]
- inhibition at 1 µM: 77%

SMILES: O=C(NCC1COCCN1C(=O)Nc1ccccc1)c1ccc(-c2noc(C(F)(F)F)n2)cc1 (centres unmarked) [Example 2, N-phenyl-3-(((4-(5-(trifluoromethyl)-1,2,4-oxadiazol-3-yl)benzoyl)amino)methyl)morpholine-4-carboxamide]
- inhibition at 1 µM: 86%

SMILES: Cc1ccsc1C(=O)N1CCOC[C@@H]1CNC(=O)c1ccc(-c2noc(C(F)(F)F)n2)cn1 [Example 198, N-(((3S)-4-((3-methyl-2-thienyl)carbonyl)morpholin-3-yl)methyl)-5-(5-(trifluoromethyl)-1,2,4-oxadiazol-3-yl)pyridine-2-carboxamide]
- inhibition at 1 µM: 99%
